Experiments:
Format in all cases: in vivo
[1] = tested on: kochia (Kochia scoparia); experiment: Test C pre-/postemergence: kochia; conditions: Postemergence
Excerpt: (§1) Seeds of plant species selected from blackgrass (Alopecurus myosuroides), bromegrass, downy (downy bromegrass, Bromus tectorum), foxtail, green (green foxtail, Setaria viridis), ryegrass, Italian (Italian ryegrass, Lolium multiflorum), winter wheat (Triticum aestivum), wild oat (Avena fatua), galium (catchweed bedstraw, Galium aparine), bermudagrass (Cynodon dactylon), surinam grass (Brachiaria decumbens), cocklebur (common cocklebur, Xanthium strumarium), corn (Zea mays), large crabgrass (Digitaria sanguinalis), woolly cupgrass (Eriochloa villosa), foxtail, giant (giant foxtail, Setaria faberii), goosegrass (Eleusine indica), johnsongrass (Sorghum halepense), kochia (Kochia scoparia), lambsquarters (Chenopodium album), morningglory (Ipomoea coccinea), nightshade (eastern black nightshade, Solanum ptycanthum), nutsedge, yellow (yellow nutsedge, Cyperus esculentus), pigweed (Amaranthus retroflexus), ragweed (common ragweed, Ambrosia elation), soybean (Glycine max), common (oilseed) sunflower (Helianthus annuus), Russian thistle (Salsola kali) and velvetleaf (Abutilon theophrasti) were planted into a blend of loam soil and sand and treated preemergence with test chemicals formulated in a non-phytotoxic solvent mixture which included a surfactant.
(§2) At the same time, plants selected from these crop and weed species and also barley (winter barley, Hordeum vulgare), canarygrass (Phalaris minor), chickweed (common chickweed, Stellaria media) windgrass (Apera spica-venti) and deadnettle (henbit deadnettle, Lamium amplexicaule) were planted in pots containing Redi-Earth® planting medium (Scotts Company, 14111 Scottslawn Road, Marysville, Ohio 43041) comprising spaghnum peat moss, vermiculite, wetting agent and starter nutrients and treated with postemergence applications of test chemicals formulated in the same manner. Plants ranged in height from 2 to 18 cm (1- to 4-leaf stage) for postemergence treatments.
(§3) Treated plants and controls were maintained in a greenhouse for 13 to 15 days, after which time all species were compared to controls and visually evaluated. Plant response ratings, summarized in Table C, are based on a scale of 0 to 100 where 0 is no effect and 100 is complete control. A dash (-) response means no test result.

[2] = tested on: velvetleaf (Abutilon theophrasti); experiment: Test C pre-/postemergence: velvetleaf
Excerpt: as §1, §2, §3

[3] = tested on: wild oat (Avena fatua); experiment: Test C pre-/postemergence: wild oat; conditions: Postemergence
Excerpt: as §1, §2, §3

[4] = tested on: large crabgrass (Digitaria sanguinalis); experiment: Test C pre-/postemergence: large crabgrass
Procedure, shortened: (§4)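 Preemergence on seeds in loam/sand, postemergence on 2–18 cm (1–4-leaf) plants in peat-based medium; compounds in non-phytotoxic solvent with surfactant. After 13–15 days in greenhouse, visual rating versus controls, 0 (no effect) to 100 (complete control).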

[5] = tested on: foxtail, giant (giant foxtail, Setaria faberii); experiment: Test C pre-/postemergence: foxtail, giant
Excerpt: as §1, §2, §3

[6] = tested on: foxtail, giant (giant foxtail, Setaria faberii); experiment: Test A pre-/postemergence: foxtail, giant
Procedure, shortened: (§5)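 Pre: directed soil spray after planting in loam + sand. Post: same formulation (non-phytotoxic solvent + surfactant) on 1–2-leaf plants, 2–10 cm. Greenhouse ~10 d; visual injury 0–100 vs untreated.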

[7] = tested on: pigweed (Amaranthus retroflexus); experiment: Test C pre-/postemergence: pigweed
Procedure, shortened: as §4

[8] = tested on: soybean (Glycine max); experiment: Test C pre-/postemergence: soybean
Procedure, shortened: as §4

[9] = tested on: crabgrass, large (large crabgrass, Digitaria sanguinalis); experiment: Test A pre-/postemergence: crabgrass, large
Procedure, shortened: as §5

[10] = tested on: winter wheat (Triticum aestivum); experiment: Test C pre-/postemergence: winter wheat
Procedure, shortened: as §4

[11] = tested on: ragweed (common ragweed, Ambrosia elation); experiment: Test C pre-/postemergence: ragweed
Excerpt: as §1, §2, §3

[12] = tested on: corn (Zea mays); experiment: Test A pre-/postemergence: corn
Procedure, shortened: as §5

[13] = 31 g ai/ha, scale 0 to 100 (0 no effect, 100 complete control)
[14] = 62 g ai/ha, scale 0 to 100 (0 no effect, 100 complete control)
[15] = 125 g ai/ha, scale 0 to 100, 0 no effect, 100 complete control
[16] = Postemergence, 31 g ai/ha, scale 0 to 100 (0 no effect, 100 complete control)
[17] = Postemergence, 62 g ai/ha, scale 0 to 100 (0 no effect, 100 complete control)
[18] = Postemergence, 125 g ai/ha, scale 0 to 100, 0 no effect, 100 complete control
[19] = Postemergence, 250 g ai/ha, scale 0 to 100
[20] = Preemergence, 31 g ai/ha, scale of 0 to 100, 0 is no effect, 100 is complete control
[21] = Preemergence, 62 g ai/ha, scale of 0 to 100, 0 is no effect, 100 is complete control
[22] = Preemergence, 125 g ai/ha, scale 0 to 100, 0 no effect, 100 complete control
[23] = Preemergence, 250 g ai/ha, scale 0 to 100, 0 no effect, 100 complete control
[24] = Postemergence, 125 g ai/ha, 0 to 100 scale, 0 is no effect, 100 is complete control
[25] = Postemergence, 500 g ai/ha, visual rating on 0 to 100 scale (0 no effect, 100 complete control), approximately ten days
[26] = Preemergence, 125 g ai/ha, 0 to 100 scale where 0 is no effect and 100 is complete control
[27] = Preemergence, 500 g ai/ha, 0 to 100 scale (0 no effect, 100 complete control)
[28] = 250 g ai/ha, scale 0 to 100 (0 no effect, 100 complete control)
[29] = Postemergence, 250 g ai/ha, scale 0 to 100 (0 no effect, 100 complete control)
[30] = Preemergence, 31 g ai/ha, scale 0 (no effect) to 100 (complete control)
[31] = Postemergence, 500 g ai/ha, 0 to 100 scale, 0 is no effect, 100 is complete control

Cc1nn(-c2ccc(C(F)(F)F)c(F)c2)nc1Cc1ccnc(C(F)(F)F)c1 [Compound 162]
35: Plant response rating, Velvetleaf [2, 16] | Plant response rating, Crabgrass, Large [4, 17] | Plant response rating, Crabgrass, Large [4, 18] | Plant response rating, Wheat [10, 23]
55: Plant response rating, Velvetleaf [2, 17] | Plant response rating, Velvetleaf [2, 20] | Plant response rating, Foxtail, Giant [5, 17]
25: Plant response rating, Soybean [8, 23] | Plant response rating, Wheat [10, 18] | Plant response rating, Wheat [10, 19]
95: Plant response rating, Kochia [1, 15] | Plant response rating, Kochia ([1]; 250 g ai/ha, scale 0 to 100) | Plant response rating, Pigweed [7, 19] | Plant response rating, Soybean [8, 19] | Plant response rating, Ragweed [11, 19] | Plant response rating, Ragweed [11, 23]
70: Plant response rating, Soybean [8, 16] | Plant response rating, Soybean [8, 17]
98: Plant response rating, Foxtail, Giant [5, 19] | Plant response rating, Foxtail, Giant [5, 20]
75: Plant response rating, Soybean [8, 18] | Plant response rating, Ragweed [11, 21]
40: Plant response rating, Oat, Wild [3, 13] | Corn plant response rating [12, 25]
45: Plant response rating, Foxtail, Giant [5, 16]
20: Plant response rating, Crabgrass, Large [4, 16] | Plant response rating, Wheat [10, 16] | Plant response rating, Wheat [10, 17] | Plant response rating, Wheat [10, 22] | Plant response rating, Corn [12, 24] | Plant response rating, Corn [12, 26]
60: Plant response rating, Velvetleaf [2, 18] | Plant response rating, Oat, Wild [3, 14] | Plant response rating, Oat, Wild [3, 15]
30: Plant response rating, Corn [12, 27]
90: Plant response rating, Kochia [1, 13] | Plant response rating, Kochia [1, 14] | Plant response rating, Oat, Wild ([3]; 250 g ai/ha, scale 0 to 100) | Plant response rating, Foxtail, Giant [6, 24] | Foxtail, Giant plant response rating [6, 25] | Plant response rating, Pigweed [7, 18] | Plant response rating, Crabgrass, Large [9, 24] | Crabgrass, Large plant response rating [9, 25]
65: Plant response rating, Foxtail, Giant [5, 18]
5: Plant response rating, Wheat [10, 21]
15: Plant response rating, Soybean [8, 20] | Plant response rating, Soybean [8, 21]
50: Plant response rating, Ragweed [11, 20]
85: Plant response rating, Velvetleaf [2, 19] | Plant response rating, Pigweed [7, 16] | Plant response rating, Pigweed [7, 17] | Plant response rating, Ragweed [11, 16] | Plant response rating, Ragweed [11, 18]
100: Plant response rating, Velvetleaf [2, 22] | Plant response rating, Velvetleaf [2, 23] | Plant response rating, Crabgrass, Large [4, 20] | Plant response rating, Crabgrass, Large [4, 21] | Plant response rating, Crabgrass, Large [4, 22] | Plant response rating, Crabgrass, Large [4, 23] | Plant response rating, Foxtail, Giant [5, 21] | Plant response rating, Foxtail, Giant [5, 22] | Plant response rating, Foxtail, Giant [5, 23] | Plant response rating, Foxtail, Giant [6, 26] | Plant response rating, Foxtail, Giant [6, 27] | Plant response rating, Pigweed [7, 20] | Plant response rating, Pigweed [7, 21] | Plant response rating, Pigweed [7, 22] | Plant response rating, Pigweed [7, 23] | Plant response rating, Crabgrass, Large [9, 26] | Plant response rating, Crabgrass, Large [9, 27]
80: Plant response rating, Velvetleaf [2, 21] | Plant response rating, Crabgrass, Large [4, 19] | Plant response rating, Ragweed [11, 22]

CCCc1nn(-c2ccc(C(F)(F)F)c(F)c2)nc1Oc1ccnc(C(F)(F)F)c1 [Compound 185]
15: Plant response rating, Wheat [10, 17] | Plant response rating, Wheat [10, 18]
90: Plant response rating, Kochia [1, 13] | Plant response rating, Kochia [1, 14] | Plant response rating, Kochia [1, 15] | Plant response rating, Kochia [1, 28] | Plant response rating, Velvetleaf [2, 29] | Plant response rating, Foxtail, Giant [5, 18] | Plant response rating, Foxtail, Giant [6, 24] | Foxtail, Giant plant response rating [6, 31] | Plant response rating, Crabgrass, Large [9, 24] | Crabgrass, Large plant response rating [9, 31] | Plant response rating, Ragweed [11, 17]
20: Plant response rating, Wheat [10, 29] | Plant response rating, Corn [12, 24]
60: Plant response rating, Velvetleaf [2, 30] | Plant response rating, Oat, Wild [3, 28] | Plant response rating, Crabgrass, Large [4, 18]
85: Plant response rating, Velvetleaf [2, 18]
30: Plant response rating, Oat, Wild [3, 14] | Plant response rating, Corn [12, 27]
100: Plant response rating, Velvetleaf [2, 22] | Plant response rating, Velvetleaf [2, 23] | Plant response rating, Crabgrass, Large [4, 30] | Plant response rating, Crabgrass, Large [4, 21] | Plant response rating, Crabgrass, Large [4, 22] | Plant response rating, Crabgrass, Large [4, 23] | Plant response rating, Foxtail, Giant [5, 30] | Plant response rating, Foxtail, Giant [5, 21] | Plant response rating, Foxtail, Giant [5, 22] | Plant response rating, Foxtail, Giant [5, 23] | Plant response rating, Foxtail, Giant [6, 26] | Plant response rating, Foxtail, Giant [6, 27] | Plant response rating, Pigweed [7, 18] | Plant response rating, Pigweed [7, 29] | Plant response rating, Pigweed [7, 30] | Plant response rating, Pigweed [7, 21] | Plant response rating, Pigweed [7, 22] | Plant response rating, Pigweed [7, 23] | Plant response rating, Crabgrass, Large [9, 26] | Plant response rating, Crabgrass, Large [9, 27]
25: Plant response rating, Oat, Wild [3, 13] | Plant response rating, Crabgrass, Large [4, 16]
55: Plant response rating, Velvetleaf [2, 16] | Plant response rating, Oat, Wild [3, 15] | Plant response rating, Soybean [8, 29] | Plant response rating, Wheat [10, 23]
45: Plant response rating, Soybean [8, 17] | Plant response rating, Soybean [8, 18]
50: Corn plant response rating [12, 31]
5: Plant response rating, Soybean [8, 30] | Plant response rating, Wheat [10, 16]
10: Plant response rating, Soybean [8, 21] | Plant response rating, Wheat [10, 30] | Plant response rating, Corn [12, 26]
75: Plant response rating, Ragweed [11, 16]
95: Plant response rating, Ragweed [11, 18] | Plant response rating, Ragweed [11, 29] | Plant response rating, Ragweed [11, 22] | Plant response rating, Ragweed [11, 23]
40: Plant response rating, Crabgrass, Large [4, 17] | Plant response rating, Foxtail, Giant [5, 16] | Plant response rating, Soybean [8, 16] | Plant response rating, Soybean [8, 22] | Plant response rating, Soybean [8, 23] | Plant response rating, Wheat [10, 21] | Plant response rating, Wheat [10, 22] | Plant response rating, Ragweed [11, 30]
98: Plant response rating, Foxtail, Giant [5, 19] | Plant response rating, Pigweed [7, 16] | Plant response rating, Pigweed [7, 17]
80: Plant response rating, Velvetleaf [2, 17] | Plant response rating, Velvetleaf [2, 21] | Plant response rating, Crabgrass, Large [4, 19] | Plant response rating, Foxtail, Giant [5, 17] | Plant response rating, Ragweed [11, 21]

Reference: patent US9302999B2, “Substituted triazoles as herbicides” (E. I. DU PONT DE NEMOURS AND COMPANY, priority 2012, dated 2016)
